{
  "source": "patent US20220372066A1",
  "about": "“HUMAN SQUALAMINE DERIVATIVES (ENT-06), RELATED COMPOSITIONS COMPRISING THE SAME, AND METHOD OF USING THE SAME” (Enterin, Inc., priority 2019, published 2022)",
  "key": {"[1]": {"tested_on": "mouse stomach RNA transcriptome", "test": "RNAseq of stomach transcriptome in old mice after oral squalamine (Example 1)", "format": "in vivo", "settings": "oral dosing 14 days", "experimental": "The dosing schedule used to determine the effect of orally administered squalamine and ENT-02 (MSI-1436) on the GI tracts of young and old mice was as follows. Male C57B1/6 mice, aged 20 and 78 weeks, were obtained from Jackson labs. Animals were exposed to 12 hr light dark cycles and provided Teklad standard mouse diet and water ad lib.\nAnimals were dosed once daily by oral gavage in the morning for a total of 14 days. Animals were fasted 3-4 hours prior to dosing and 1 hour following. The test article was dissolved in 0.5% hydroxypropylcellulose in water. On day 15 the animals were euthanized by C02 asphyxiation, necropsied, and tissues prepared for histology and RNAseq analysis.\nThe GI tracts of the animals were sectioned into stomach, duodenum, jejunum, ileum, caecum, colon, and rectum. The tissues were then sent for histology, and the transcriptomes analyzed by RNAseq."}, "[2]": {"tested_on": "mouse stomach tissues gene expression", "test": "Treatment induced gene expression in mouse stomach tissues, RNA-sequencing, differential expression by fold change (Example 3)", "format": "in vivo", "settings": "for Number of significant features, Down-regulated, fold change threshold 1.3× / Number of significant features, Down-regulated, fold change threshold 2× / Number of significant features, Down-regulated, fold change threshold 4× / Number of significant features, Down-regulated, fold change threshold 8× / Number of significant features, Down-regulated, fold change threshold 16× / Number of significant features, Down-regulated, fold change threshold Any / Number of significant features, Up-regulated, fold change threshold 1.3× / Number of significant features, Up-regulated, fold change threshold 2× / Number of significant features, Up-regulated, fold change threshold 4× / Number of significant features, Up-regulated, fold change threshold 8× / Number of significant features, Up-regulated, fold change threshold 16× / Number of significant features, Up-regulated, fold change threshold Any: stomach"}, "[3]": {"tested_on": "murine stomach tissue gene expression profile", "test": "Congruence analysis of differentially expressed stomach genes, ENT-01 vs ENT-06", "format": "in vivo, mouse", "excerpt": "Genes that were differentially expressed in response to ENT-01 treatment, as identified in this study, were compared to those that were associated with ENT-06 treatments, respectively. ENT-06 treatment-associated gene expression changes were identified previously. Across all contrasts at the relevant statistical thresholds used to identify significant features, there were ten or less genes that changed in expression upon both treatments (ENT-01 and ENT-06). Note that this included the gene expression changes associated with ageing.\nCongruence analysis was performed between the contrasts Specifically, the analysis compared the effects of human- or shark-origin compound analogues on murine stomach tissue gene expression profile as follows: ENT-01 was compared to ENT-06. Scatter plots, upset plots, venn diagrams, hypergeometric tests and Spearman rank correlation tests were employed to assess the level of overlap. […] Whereas the ENT-01 contrasts in this study defined significant genes using a cutoff of greater than four-fold change in expression.\nCongruence between these sets of genes was then assessed by comparing ENT-01-affected genes to those of ENT-06. […] The symbol U denotes the universe. Overlap was assessed between ENT-01 vs control (young) (202 genes) and ENT-06 vs untreated (young) (26 genes). 10 genes overlapped between the two sets when not considering direction of change. […] The Spearman rank correlation between the genes in the two sets was −0.1313.\nCongruence analysis for: ENT-01 vs ENT-06 (old) was also conducted. […] Overlap was assessed between ENT-01 vs control (old) (383 genes) and ENT-06 vs untreated (old) (55 genes). 1 genes overlapped between the two sets when not considering direction of change. This is no more than would be expected by chance (p=0.5057). The Spearman rank correlation between the genes in the two sets was 0.003217."}, "[4]": {"tested_on": "mice with constipation due to overexpression of human αS", "settings": "orally administered; cited from earlier work"}, "[5]": {"biological_target": "sodium-hydrogen exchanger (“NHE-3”) (Oryctolagus cuniculus, UniProt P26432)", "sequence (P26432 30-832)": "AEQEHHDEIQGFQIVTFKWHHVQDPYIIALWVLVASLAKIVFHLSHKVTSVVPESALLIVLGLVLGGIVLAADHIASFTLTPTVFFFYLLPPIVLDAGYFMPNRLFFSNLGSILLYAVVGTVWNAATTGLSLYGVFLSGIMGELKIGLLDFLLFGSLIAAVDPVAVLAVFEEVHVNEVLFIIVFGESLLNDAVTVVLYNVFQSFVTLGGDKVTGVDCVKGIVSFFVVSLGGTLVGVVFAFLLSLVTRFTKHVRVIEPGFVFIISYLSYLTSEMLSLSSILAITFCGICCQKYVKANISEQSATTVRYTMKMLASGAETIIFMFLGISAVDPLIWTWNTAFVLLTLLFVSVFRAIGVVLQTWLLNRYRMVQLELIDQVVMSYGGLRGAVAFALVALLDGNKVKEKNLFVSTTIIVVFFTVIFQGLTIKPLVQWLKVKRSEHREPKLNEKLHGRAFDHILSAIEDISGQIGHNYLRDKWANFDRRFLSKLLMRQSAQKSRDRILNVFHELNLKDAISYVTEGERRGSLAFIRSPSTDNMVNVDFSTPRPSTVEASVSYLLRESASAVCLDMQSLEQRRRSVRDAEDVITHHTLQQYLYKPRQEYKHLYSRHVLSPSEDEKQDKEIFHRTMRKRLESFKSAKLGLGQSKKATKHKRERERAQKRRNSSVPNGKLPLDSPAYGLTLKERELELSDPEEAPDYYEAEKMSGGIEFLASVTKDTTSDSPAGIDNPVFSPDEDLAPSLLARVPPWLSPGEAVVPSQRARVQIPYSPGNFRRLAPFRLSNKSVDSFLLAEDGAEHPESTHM", "settings": "Akhter, Nath et al. 1999; cited from earlier work"}, "[6]": {"settings": "cutoff greater than four-fold change in expression"}, "[7]": {"settings": "Old vs young mice, both treated"}, "[8]": {"settings": "treatment vs control (old mice)"}, "[9]": {"settings": "treatment vs control (young mice)"}},
  "data": [
    {"smiles": "CC(C)[C@@H](CC[C@@H](C)[C@H]1CC[C@H]2[C@@H]3[C@H](O)C[C@H]4C[C@@H](NCCCNCCCCN)CC[C@]4(C)[C@H]3CC[C@]12C)OS(=O)(=O)O", "note": "(single isomer, unassigned) [ENT-01, squalamine]", "values": [
      {"measurement": "mRNA levels for all of the genes of Table 3 after treatment", "setting": "[1]", "result": "significant increase"},
      {"measurement": "overlap of genes downregulated in aged mice with genes up-regulated in response to treatment in old mice", "setting": "[2]; hypergeometric P<0.0001", "result": "overlapped significantly"},
      {"measurement": "number of significant genes, treatment vs control (old)", "setting": "[3]; [6]", "result": 383, "unit": "genes"},
      {"measurement": "number of significant genes, treatment vs control (young)", "setting": "[3]; [6]", "result": 202, "unit": "genes"},
      {"measurement": "gastro-intestinal motility", "setting": "[4]", "result": "stimulates gastro-intestinal motility"},
      {"measurement": "inhibition of NHE-3", "setting": "[5]", "result": "inhibit"}
    ]},
    {"smiles": "CC(C)[C@@H](CC[C@@H](C)[C@H]1CC[C@H]2[C@@H]3[C@H](O)C[C@H]4C[C@@H](NCCCNCCCCNCCCN)CC[C@]4(C)[C@H]3CC[C@]12C)OS(=O)(=O)O", "note": "(single isomer, unassigned) [ENT-02 (MSI-1436), trodusquemine]", "values": [
      {"measurement": "Number of significant features, Down-regulated, fold change threshold 1.3×", "setting": "[2]; [7]", "result": 1986},
      {"measurement": "Number of significant features, Down-regulated, fold change threshold 2×", "setting": "[2]; [7]", "result": 314},
      {"measurement": "Number of significant features, Down-regulated, fold change threshold 4×", "setting": "[2]; [7]", "result": 63},
      {"measurement": "Number of significant features, Down-regulated, fold change threshold 8×", "setting": "[2]; [7]", "result": 8},
      {"measurement": "Number of significant features, Down-regulated, fold change threshold 16×", "setting": "[2]; [7]", "result": 4},
      {"measurement": "Number of significant features, Down-regulated, fold change threshold Any", "setting": "[2]; [7]", "result": 7344},
      {"measurement": "Number of significant features, Up-regulated, fold change threshold 1.3×", "setting": "[2]; [7]", "result": 2644},
      {"measurement": "Number of significant features, Up-regulated, fold change threshold 2×", "setting": "[2]; [7]", "result": 676},
      {"measurement": "Number of significant features, Up-regulated, fold change threshold 4×", "setting": "[2]; [7]", "result": 190},
      {"measurement": "Number of significant features, Up-regulated, fold change threshold 8×", "setting": "[2]; [7]", "result": 78},
      {"measurement": "Number of significant features, Up-regulated, fold change threshold 16×", "setting": "[2]; [7]", "result": 39},
      {"measurement": "Number of significant features, Up-regulated, fold change threshold Any", "setting": "[2]; [7]", "result": 7669},
      {"measurement": "Number of significant features, Down-regulated, fold change threshold 1.3×", "setting": "[2]; [8]", "result": 1395},
      {"measurement": "Number of significant features, Down-regulated, fold change threshold 2×", "setting": "[2]; [8]", "result": 203},
      {"measurement": "Number of significant features, Down-regulated, fold change threshold 4×", "setting": "[2]; [8]", "result": 38},
      {"measurement": "Number of significant features, Down-regulated, fold change threshold 8×", "setting": "[2]; [8]", "result": 7},
      {"measurement": "Number of significant features, Down-regulated, fold change threshold 16×", "setting": "[2]; [8]", "result": 1},
      {"measurement": "Number of significant features, Down-regulated, fold change threshold Any", "setting": "[2]; [8]", "result": 7597},
      {"measurement": "Number of significant features, Up-regulated, fold change threshold 1.3×", "setting": "[2]; [8]", "result": 2109},
      {"measurement": "Number of significant features, Up-regulated, fold change threshold 2×", "setting": "[2]; [8]", "result": 657},
      {"measurement": "Number of significant features, Up-regulated, fold change threshold 4×", "setting": "[2]; [8]", "result": 298},
      {"measurement": "Number of significant features, Up-regulated, fold change threshold 8×", "setting": "[2]; [8]", "result": 139},
      {"measurement": "Number of significant features, Up-regulated, fold change threshold 16×", "setting": "[2]; [8]", "result": 42},
      {"measurement": "Number of significant features, Up-regulated, fold change threshold Any", "setting": "[2]; [8]", "result": 7416},
      {"measurement": "Number of significant features, Down-regulated, fold change threshold 1.3×", "setting": "[2]; [9]", "result": 2429},
      {"measurement": "Number of significant features, Down-regulated, fold change threshold 2×", "setting": "[2]; [9]", "result": 531},
      {"measurement": "Number of significant features, Down-regulated, fold change threshold 4×", "setting": "[2]; [9]", "result": 120},
      {"measurement": "Number of significant features, Down-regulated, fold change threshold 8×", "setting": "[2]; [9]", "result": 43},
      {"measurement": "Number of significant features, Down-regulated, fold change threshold 16×", "setting": "[2]; [9]", "result": 16},
      {"measurement": "Number of significant features, Down-regulated, fold change threshold Any", "setting": "[2]; [9]", "result": 7667},
      {"measurement": "Number of significant features, Up-regulated, fold change threshold 1.3×", "setting": "[2]; [9]", "result": 1860},
      {"measurement": "Number of significant features, Up-regulated, fold change threshold 2×", "setting": "[2]; [9]", "result": 232},
      {"measurement": "Number of significant features, Up-regulated, fold change threshold 4×", "setting": "[2]; [9]", "result": 30},
      {"measurement": "Number of significant features, Up-regulated, fold change threshold 8×", "setting": "[2]; [9]", "result": 7},
      {"measurement": "Number of significant features, Up-regulated, fold change threshold 16×", "setting": "[2]; [9]", "result": 1},
      {"measurement": "Number of significant features, Up-regulated, fold change threshold Any", "setting": "[2]; [9]", "result": 7346}
    ]},
    {"smiles": "C[C@H](CCC[C@@H](C)[C@H]1CCC2C3C(CC[C@@]21C)[C@@]1(C)CC[C@H](NCCCNCCCCN)C[C@@H]1C[C@H]3O)C(=O)O", "note": "(single isomer, unassigned) [ENT-06, 3-β-Spermidino-7α-hydroxy-5α-cholestanoic acid]", "values": [
      {"measurement": "Spearman rank correlation between the genes in the ENT-01 and ENT-06 sets", "setting": "[3]; old mice", "result": 0.003217},
      {"measurement": "overlap of genes down-regulated in ageing and up-regulated in treatment, ENT-01 vs ENT-06", "setting": "[3]; old mice", "result": "did not overlap"},
      {"measurement": "genes overlapping with ENT-01 vs control (old) set, not considering direction of change", "setting": "[3]; old mice, p=0.5057", "result": 1, "unit": "genes"},
      {"measurement": "number of significant genes, treatment vs untreated (old)", "setting": "[3]; threshold FDR-adjusted P<0.05", "result": 55, "unit": "genes"},
      {"measurement": "number of significant genes, treatment vs untreated (young)", "setting": "[3]; threshold FDR-adjusted P<0.05", "result": 26, "unit": "genes"},
      {"measurement": "genes overlapping with ENT-01 vs control (young) set, not considering direction of change", "setting": "[3]; young mice, p=1.721e−16", "result": 10, "unit": "genes"},
      {"measurement": "Spearman rank correlation between the genes in the ENT-01 and ENT-06 sets", "setting": "[3]; young mice, p=5.678e−57", "result": "−0.1313"}
    ]}
  ]
}
